Bounds are passed on as bounds.

As for `ClCc1csc(/C=C/c2ccccc2)n1`, the melting point fell in the range of 88 to 89 °C.
Molecule `O[C@@H](CNCC1CCN(CCC(F)(F)F)CC1)COc1ccc(Br)c2[nH]c3ccccc3c12` gave a melting point of 79 °C.
Consider `CCOCc1nc2c(N)nc(C)c(C)c2n1CCOCCCc1cncnc1`, for which the melting point was in the range of 127 to 129 °C.
Then `CC(C)=Cc1sc(C#N)c2c1C(=O)CC(C)(C)C2`, with 115 to 117 °C.
Then `CCOc1cc(N)c(Cl)cc1C(=O)NCC1CN(Cc2ccc(F)cc2)CCO1` (configuration not stated), with 151 to 153 °C; and `Cc1ccc(Cl)c2c1[nH]c1c(C(=O)O)cccc12`, with 303 °C.
As to `O=C(O)C(=O)c1c(F)cc(OCCOc2ccc3ccccc3c2)cc1F`, the melting point was 157 to 158 °C.
Molecule `COc1ccc(-c2nc(Sc3ccccc3)n(C)c2-c2ccc(OC)cc2)cc1` gave a melting point of 115 to 117 °C.
Consider `CCCN(CCCc1c[nH]c2c(Cl)cccc12)C1COc2c(F)ccc(C(N)=O)c2C1` (configuration not stated), for which the melting point was in the range of 145 to 154 °C.
`Cc1c(-c2ccc(OCc3ccccc3)cc2)n(Cc2ccc(OCCBr)cc2)c2ccc(OCc3ccccc3)cc12` displayed a melting point of 131 to 134 °C.
Regarding `CC(=O)OC(C)c1ncnc(Cl)c1I` (configuration not stated), the melting point lay within 55 to 58 °C.
`CC(=O)NCCC1=C(C(C)C)Cc2ccc3nc(C)oc3c21` returned a melting point of 135 to 138 °C.
As for `C(=Cc1ccc(-c2ccc(OCCCN3CCCCC3)cc2)cc1)CN1CCCCC1`, the melting point lay in the range of 100 to 105 °C.
Regarding `O=C(Cc1ccc(F)cc1)N1CCN(Cc2ccccc2)CC1`, the melting point was in the range of 99 to 101 °C.
Regarding `c1ccc(C2CNc3c4c(nc5cccc(c35)O2)CCCC4)cc1` (configuration not stated), the melting point fell in the range of 194 to 195 °C.
Turning to `CSC(SC)=C1C(=O)CCCC1=O`, the melting point was in the range of 66 to 67 °C.
Then `CN(C)c1ccc(-c2cc(N)n[nH]2)cc1`, with 169 to 170 °C; and `O=C(CCc1ccccc1)N[C@H](Cc1ccc(Oc2ccccc2)cc1)[C@@H](O)c1ccc(F)cc1` (racemic), with 108 to 110 °C; and `CSc1ccc(-c2cnn(-c3ccc(F)cc3)c(=O)c2OC(C)C)cc1`, with 135 to 137 °C.
`NC(=O)c1cccc(C(N)=O)c1[N+](=O)[O-]`: the melting point fell in the range of 283 to 285 °C.
Regarding `Cc1cccc(NC(=O)CN2CCN(c3ncccc3C#N)CC2)c1`, the melting point lay in the range of 99 to 100 °C.
Consider `CCN(CC)[C@@H]1CCC[C@H]1Nc1ccnc2cc(Cl)ccc12` (racemic), for which the melting point was in the range of 186 to 190 °C.
`Cn1c(NN)nc2ccc(O)cc2c1=O` showed a melting point above 300 °C.
For `CCC(=O)c1ccc(SC)cn1`, the melting point was in the range of 52 to 53 °C.
`CSc1ccc([N+](=O)[O-])nc1` yielded a melting point of 165 to 167 °C.
`O=c1c2cccnc2n(-c2cccc([N+](=O)[O-])c2)c(=O)n1Cc1ccncc1` gave a melting point of 207 to 209 °C.
Molecule `CCCCCCCCCCOC(=O)CN(CP(=O)(ONC1CCCCC1)ONC1CCCCC1)C(=O)C(F)(F)F` yielded a melting point of 79.5 to 82.5 °C.
`Cc1nc2c(c(=O)[nH]1)-c1ccc(Cl)cc1C(c1ccccc1)=[N+]([O-])C2`: the melting point lay within 219 to 221 °C.
Molecule `c1ccc(-c2nnc(-c3ccccc3)c3c2CCCCCC3)cc1` had a melting point of 163 to 165 °C.
As to `Cc1cc(C2(C(F)(F)F)CC(c3ccc(S(C)=O)cc3)=NO2)ccc1N` (configuration not stated), the melting point lay within 68.5 to 77 °C.
In the case of `Cn1cnc(COc2nn3c(-c4ccccc4F)nnc3cc2-c2ccsc2)n1`, the melting point lay within 216 to 218 °C.
For `C=Cc1cc2cc(OC)ccc2[nH]1`, the melting point was in the range of 80 to 81 °C.
On to `COC(=O)c1ccccc1C(=O)c1ccc(O)cc1`, for which the melting point fell in the range of 147 to 149 °C.
In turn, `CCn1nc(-c2ccc(OC)c(F)c2)c(-c2ccc(OC)cc2)cc1=O` had a melting point of 123 to 124 °C.
In the case of `Cc1nc(Cl)c2c3c(oc2n1)CCCC3`, the melting point is 42.4 to 43.8 °C.
Then `COc1cc(N2CCN(C(=O)c3ccc(Nc4ccnc5cc(C(F)(F)F)ccc45)cc3)CC2)nc(OC)n1`, with 260 to 262 °C.
Then `CCOC(=O)c1cn(C2CC2)c2nc(N3C[C@@H](CNC(C)=O)[C@H](F)C3)c(F)cc2c1=O` (relative stereo), with 211 to 213 °C.
As for `CC(=O)c1ccc(OCC(O)CCCl)cc1` (configuration not stated), the melting point is 75 to 77 °C.
For the molecule `CCOC(=O)c1cn(CC)c2cc(N3CCN(C)CC3)c(F)cc2c1=O`, the melting point lay in the range of 176 to 179 °C.
Turning to `Cn1c(-c2ccc(-c3cccs3)cc2)cnc1[C@H](Cc1ccccn1)N(C=O)c1cc2cc(Cl)ccc2o1`, the melting point is 110 to 114 °C.
`CN1CCN(NC(=O)Nc2cccc3c2C(=O)c2c-3n[nH]c2-c2ccc(N(C)C)cc2)CC1`: the melting point is above 300 °C.
As for `CC(=O)CSc1c([N+](=O)[O-])ccc(F)c1Cl`, the melting point fell in the range of 91 to 92 °C.
`COc1cccc(CC(=O)O)c1OCCCn1cc(C(=O)NCc2ccc(Cl)cc2Cl)c(OC(C)C)n1` yielded a melting point of 134 to 135 °C.
`CCCCCCc1ccc(-n2c(-c3ccc(CC(=O)O)cc3)ccc2-c2ccc(CC(=O)O)cc2)cc1`: the melting point lay in the range of 129 to 130 °C.
`c1cc(-c2cncnc2)cc(-n2cnc3cc(-n4cccc4)ccc32)c1` displayed a melting point of 197 to 198 °C.
As for `CC(C)(C)[Si](C)(C)O[C@@H]1c2cc(Br)ccc2-c2ccc(Br)cc2[C@H]1O[Si](C)(C)C(C)(C)C` (relative stereo), the melting point is 162 to 163 °C.
The molecule `CCc1nnc(-c2ccc(OC)cc2)n1-c1ccccc1` showed a melting point of 118 °C.
For the molecule `CC1OCC(=O)N(C(=O)O)C1c1ccc(F)c(F)c1` (single isomer, unassigned; (+)), the melting point lay in the range of 191 to 194 °C.
`O=C(O)c1cc(F)c(F)c(F)n1` returned a melting point of 81 to 82 °C.
`Cc1ccc2c(c1)c(=O)c(-c1nnnn1C)cn2C` yielded a melting point of 281 to 282 °C.
To `CC(=C1SC(=O)NC1=O)c1ccc(OCCOc2c(-c3ccc(F)c(F)c3)n(C)c3ccccc3c2=O)cc1` belongs 248 to 250 °C; to `O=C(OCP(=O)(C1CCCCC1)C1CCCCC1)c1ccc(C(=O)OCP(=O)(C2CCCCC2)C2CCCCC2)cc1`, 226 to 228 °C.
Molecule `CN1CCN(S(=O)(=O)c2cccc(NC(=O)c3cnn4c(C(F)F)cc(-c5ccc(Cl)cc5)nc34)c2)CC1` displayed a melting point of 147 °C.
To `COc1cc2ncnc(Nc3ccc(F)c(Cl)c3)c2cc1OCCN1CC(=O)O[C@@H](C)C1` belongs 212 to 213 °C.
Then `O=C(O)/C=C1/c2ccccc2N(C(=O)c2ccc(NC(=O)c3ccccc3-c3ccccc3)cc2)CCC1(F)F`, with 224 to 226 °C; and `BrC1Cn2cccc2Sc2ccccc21` (configuration not stated), with 115 to 116 °C.
The molecule `CCCCCCCCCCCCCCCCCC(=O)OC(CCc1cc(C(C)(C)C)c(O)c(C(C)(C)C)c1)CCc1cc(C(C)(C)C)c(O)c(C(C)(C)C)c1` yielded a melting point of 52 to 54 °C.
`COc1cc2c(cc1OC)C(C(S)(C#N)c1ccccc1C(=O)O)=NCC2` (configuration not stated) registered a melting point of 245 to 247 °C.
Regarding `O=C1NCCN(Cc2ccc(Cl)cc2)C1c1ccccc1` (configuration not stated), the melting point was 103 to 104 °C.
`CCCc1c(OCCCCCC(=O)NCCc2ccncc2)ccc(C(C)=O)c1O` gave a melting point of 80 to 83 °C.
On to `O=C(Nc1ccc(C(F)(F)F)cc1)Nc1cccc(C(=O)N2CCOCC2)n1`, for which the melting point fell in the range of 208 to 210 °C.
Molecule `COc1nccc2c1C(C)(O)c1c([nH]c3ccncc13)C2(C)O` (configuration not stated) had a melting point above 250 °C.
Regarding `CS(=O)(=O)c1c(C(=O)NN=Cc2ccc3ccccc3c2)[nH]c2ccccc12`, the melting point is above 250 °C.
To `CC(=O)NCC1CC(c2ccc(F)c(F)c2)=NO1` (configuration not stated) belongs 136 to 137 °C.
The molecule `CCOC(=S)c1cnc(C)nc1N` returned a melting point of 130 to 131 °C.
As for `CSc1nn2c(N3CCNCC3)cc(C)nc2c1S(=O)(=O)c1ccccc1`, the melting point lay in the range of 137 to 139 °C.
To `CCON(Cc1ccc(F)cc1)C(=O)C1=C(O)C(=O)N(C)C1` belongs 113 to 114 °C; to `CON=C(Cn1c(=O)ccc2ccccc21)c1ccc(C)cc1`, 129 to 132 °C; to `O=C(O)CCCCCCc1ccc(Cl)cc1`, 75 to 78 °C.
The molecule `COc1cc2c(Nc3ccc(Cl)cc3F)ncnc2cc1OCCN1CCSCC1` yielded a melting point of 181 to 182 °C.
`O=C1c2cc(Sc3ccccc3)c(Sc3ccccc3)cc2C(=O)c2c1c(O)c1cc(Sc3ccccc3)c(Sc3ccccc3)cc1c2O` yielded a melting point above 260 °C.
In turn, `CCS(=O)(=O)N(C(C)=O)c1cc(-n2nc3ccc(Cl)cn3c2=O)c(F)cc1C#N` came in with a melting point of 220 to 222 °C.
`CCC(O/N=C(\C(=O)O)c1csc(N)n1)C(=O)OC(C)(C)C` (configuration not stated): the melting point fell in the range of 122 to 124 °C.
For `COC(=O)c1ccc(CC#N)cc1S(=O)(=O)NC(=O)Nc1nc(OC)cc(OC)n1`, the melting point was in the range of 177 to 179 °C.
To `COc1ccc(Nc2nc(N)nc3c(OC)cccc23)c(C)c1` belongs 185 to 187 °C; to `CCOC(=O)C(=O)Nc1cc(C#N)c(C#N)cc1[N+](=O)[O-]`, 140 to 141 °C.
To `Cc1cc(NC(=O)C2=C(O)c3ccc4ccccc4c3S(=O)(=O)N2C)sn1` belongs 268 °C; to `COCCOCOc1c(C(C)(C)C)cc(-c2nc(Br)no2)cc1C(C)(C)C`, 89 to 91 °C.
Regarding `CC(C)N1CCC(C2=C(C#N)C(c3cccc4nonc34)c3c[nH]nc3N2)CC1` (configuration not stated), the melting point turned out to be 260 °C.
`CN(C)Cc1cc2ccc(C(=O)NN)cc2n1S(C)(=O)=O` came in with a melting point of 170 to 173 °C.
In turn, `CCCCNN1C=c2cc(-c3c(Cl)cccc3Cl)c(=O)n(C)c2=NC1` had a melting point of 184 to 186 °C.
To `NC(=O)CC12CCCCC1CCc1ccccc12` (configuration not stated) belongs 177 °C; to `CC(C)(C)OC(=O)c1cccc(O)c1`, 94 to 96 °C; to `O=C1CC(CI)C(=O)N1c1ccc(F)cc1` (configuration not stated), 156 °C.
Molecule `Cn1cnc2c1c(=O)n(CC(O)CN1CCN(C(c3ccc(F)cc3)c3ccc(F)cc3)CC1)c(=O)n2C` (configuration not stated) had a melting point of 138 to 140 °C.
Consider `CC(C)(C)OC(=O)c1nc(-c2ccc(Cl)cc2)[nH]c1-c1ccncc1`, for which the melting point is 206 to 207 °C.
Consider `CCOC(=O)c1nc(NCC(c2ccccc2)c2ccccc2)c2nc[nH]c2n1`, for which the melting point is above 200 °C.

For orientation: melting point means the temperature of the solid-liquid transition.

The record behind these values is a melting point compilation (Tetko et al.; mined from patent text by program, amines drawn as free bases though some values may be those of a salt).
